From patent publication US9688707B2, “Bicyclic morpholino compounds and oligomeric compounds prepared therefrom” (Ionis Pharmaceuticals, Inc., priority 2014, dated 2017)

Test system: complementary RNA with the sequence 5′-AGCAAAAAACGC-3′ (SEQ ID NO: 6)
Test: Thermal stability (Tm) assay
Type: binding
Conditions: for ΔTm: calculated relative to a DNA standard, same duplex and buffer as Tm; for Tm: duplex with complementary RNA strand, buffer 100 mM NaCl, 10 mM phosphate, 0.1 mM EDTA (pH 7), heating 0.5° C./min from 15° C. to 85° C.
Procedure: A series of modified morpholino oligomeric compounds were evaluated in a thermal stability (Tm) assay. A Cary 100 Bio spectrophotometer with the Cary Win UV Thermal program was used to measure absorbance vs. temperature. For the Tm experiments, oligomeric compounds were prepared at a concentration of 8 μM in a buffer of 100 mM NaCl, 10 mM phosphate and 0.1 mM EDTA (pH 7). The concentration of the oligonucleotides was determined at 85° C. The concentration of each oligomeric compound was […] after mixing of equal volumes of test oligomeric compound and complimentary RNA strand. Oligomeric compounds were hybridized with the complimentary RNA strand by heating the duplex to 90° C. for 5 minutes followed by cooling to room temperature. Using the spectrophotometer, Tm measurements were taken by heating the duplex solution at a rate of 0.5° C./min in cuvette starting @15° C. and heating to 85° C. Tm values were determined using Vant Hoff calculations (A260 vs temperature curve) using non self-complementary sequences where the minimum absorbance which relates to the duplex and the maximum absorbance which relates to the non-duplex single strand are manually integrated into the program. The oligomeric compounds were hybridized to complementary RNA with the sequence 5′-AGCAAAAAACGC-3′ (SEQ ID NO: 6). ΔTm's are calculated relative to a DNA standard.

Substance	ΔTm	Tm [°C]
05/585595: GCGTTmRTTmRTTmRGCT, diamidate linkages, morpholino, 3′-cap NH (GCGTT_{mR}TT_{mR}TT_{mR}GCT; morpholino oligomer, diamidate linkages, modified morpholino nucleosides at marked places, 3'-NH cap, as printed in the source, key not given here)	5.3 °C	50.9
05/592594: GCGTTmSTTmSTTmSGCT, diamidate linkages, morpholino, 3′-cap NTr (trityl) (GCGTT_{mS}TT_{mS}TT_{mS}GCT; morpholino oligomer, diamidate linkages, modified morpholino nucleosides at marked places, 3'-trityl cap, as printed in the source, key not given here)	5.1 °C	50.7
05/592592: GCGTTmRTTmRTTmRGCT, diamidate linkages, morpholino, 3′-cap NTr (trityl) (GCGTT_{mR}TT_{mR}TT_{mR}GCT; modified morpholino nucleosides, diamidate linkages, 3'-trityl cap, as printed in the source, key not given here)	−0.8	44.8
05/592979: GCGTTqTTqTTqGCT, q = bicyclic morpholino, diamidate linkages, 3′-cap NH (GCGTT_{q}TT_{q}TT_{q}GCT; morpholino oligomer, diamidate linkages, bicyclic morpholino at marked places, 3'-NH cap, as printed in the source, key not given here)	3 °C	48.6
05/592978: GCGTTqTTqTTqGCT, q = bicyclic morpholino, diamidate linkages, 3′-cap NTr (trityl) (GCGTT_{q}TT_{q}TT_{q}GCT; bicyclic morpholino, diamidate linkages, 3'-trityl cap, as printed in the source, key not given here)	−2.2	43.4
05/standard: DNA standard GCGTTTTTTGCT, PO linkages, unmodified DNA, 3′-cap OH (unmodified DNA) [reference compound]		45.6
05/592595: GCGTTmSTTmSTTmSGCT, diamidate linkages, morpholino, 3′-cap NH (GCGTT_{mS}TT_{mS}TT_{mS}GCT; modified morpholino nucleosides, diamidate linkages, 3'-NH cap, as printed in the source, key not given here)	10 °C	55.6
